Reference: patent US6855705B1, “11-O-methylgeldanamycin compounds” (Kosan Biosciences, Inc., priority 2003, dated 2005)
pKd: −log10 of the molar value. Read-outs that look alike come from different tables or passages of the source.

What was measured:
SKBr3 cells = assay: Cytotoxicity against SKBr3 cells (CellTiter-Glo, 72 h); conditions: Homo sapiens, SK-BR-3, 72 h, read-out: Cytotoxicity against SKBr3 Cells (IC50, nM)
Procedure: Cytotoxicity was determined with SKBr3 cells (ATCC HTB-30), a breast cancer cell line. […] Cells were plated into 96-well microtiter back plates at 4,000 cells per 50 μL per well, overnight. Serial 10× dilutions of test compound (10 μM to 0.1 μM) in cell culture media were prepared with a Biomek 2000 apparatus, using the protocols of deeper-1000 μL, media and deeper-1000 μL-dilution. 50 μL of each dilution was added to wells containing cells. Each compound or control (medium only) was tested in duplicate. For each assay, the wells contained a final volume of 100 μL (50 μL of cells and 50 μL of compound dilution). After incubating for 72 h, the plates were let stand at room temperature for 30 min. CellTiter-Glo Luminescent Reagent (Promega #G7573) (100 μL) was added to each well. The well contents were mixed for 5 min and the plates were kept at room temperature for another 30 min. Luminescence was recorded using a Wallac VICTOR^2 Multilabel Counter (PerkinElmer) and IC50 values were determined using Kaleidagraph software (Synergy Software).

Hsp90 = Hsp90 (Homo sapiens, UniProt P07900); assay: Hsp90 binding (filter binding assay)
MCF-7 = assay: Cytotoxicity, MCF-7; conditions: Homo sapiens, MCF7, read-out: Compound Cytotoxicity (IC50, nM)
A-549 = assay: Cytotoxicity, A-549; conditions: Homo sapiens, A549, read-out: Compound Cytotoxicity (IC50, nM)
SKOV-3 = assay: Cytotoxicity, SKOV-3; conditions: Homo sapiens, SK-OV-3, read-out: Compound Cytotoxicity (IC50, nM)
CCRF-CEM = assay: Cytotoxicity, CCRF-CEM; conditions: Homo sapiens, read-out: Compound Cytotoxicity (IC50, nM)
HL-60/MX2 = assay: Cytotoxicity, HL-60/MX2; conditions: Homo sapiens, HL60/MX2, read-out: Compound Cytotoxicity (IC50, nM)
CCRF-CEM/VBL = assay: Cytotoxicity, CCRF-CEM/VBL; conditions: Homo sapiens, read-out: Compound Cytotoxicity (IC50, nM)
CCRF-CEM/taxol = assay: Cytotoxicity, CCRF-CEM/taxol; conditions: Homo sapiens, read-out: Compound Cytotoxicity (IC50, nM)
CCRF-CEM/VP-16 = assay: Cytotoxicity, CCRF-CEM/VP-16; conditions: Homo sapiens, read-out: Compound Cytotoxicity (IC50, nM)
[1] = filter binding assay, read-out: Hsp90 Binding (Kd)

SMILES | IC50 (SKBr3 cells) [nM] | pKd (Hsp90) | IC50 (MCF-7) [nM] | IC50 (A-549) [nM] | IC50 (SKOV-3) [nM] | IC50 (CCRF-CEM) [nM] | IC50 (HL-60/MX2) [nM] | IC50 (CCRF-CEM/VBL) [nM] | IC50 (CCRF-CEM/taxol) [nM] | IC50 (CCRF-CEM/VP-16) [nM] | pKd (Hsp90; [1])
COC1=C2C[C@@H](C)C[C@H](OC)[C@H](O)[C@@H](C)/C=C(\C)[C@H](OC(N)=O)[C@@H](OC)/C=C\C=C(/C)C(=O)NC(=CC1=O)C2=O [Geldanamycin] | 23 | – | – | – | – | – | – | – | – | – | –
CO[C@H]1[C@@H](OC)C[C@H](C)CC2=C(NCCF)C(=O)C=C(NC(=O)/C(C)=C/C=C\[C@H](OC)[C@@H](OC(N)=O)/C(C)=C/[C@@H]1C)C2=O [Compound I-c, 11-O-methyl-17-(2-fluoroethyl)amino-17-demethoxygeldana-mycin] | 250 | 5.64 | 58 | 67 | 460 | 960 | 440 | 2500 | 2700 | 2500 | –
CO[C@H]1[C@@H](OC)C[C@H](C)CC2=C(NCCN3CC3)C(=O)C=C(NC(=O)/C(C)=C/C=C\[C@H](OC)[C@@H](OC(N)=O)/C(C)=C/[C@@H]1C)C2=O [Compound I-d, 11-O-methyl-17-(2-(1-aziridinyl)ethyl)amino-17-demethoxygelda-namycin] | 36 | 5.68 | – | – | – | – | – | – | – | – | –
CO[C@H]1[C@@H](OC)C[C@H](C)CC2=C(N3CCC3)C(=O)C=C(NC(=O)/C(C)=C/C=C\[C@H](OC)[C@@H](OC(N)=O)/C(C)=C/[C@@H]1C)C2=O [Compound I-a, 11-O-methyl-17-(1-azetidinyl)-17-demethoxygeldanamycin] | 24 | 5.40 | 63 | 29 | 110 | 420 | 600 | 2500 | 2500 | 1400 | –
CO[C@H]1[C@@H](OC)C[C@H](C)CC2=C(NCCN3CCC3)C(=O)C=C(NC(=O)/C(C)=C/C=C\[C@H](OC)[C@@H](OC(N)=O)/C(C)=C/[C@@H]1C)C2=O [Compound I-i, 11-O-methyl-17-(2-(1-azetidinyl)ethyl)amino 17-demethoxy-geldanamycin] | 130 | – | 51 | 26 | 65 | 85 | 110 | 2500 | 510 | 140 | 6.02
C=CCNC1=C2C[C@@H](C)C[C@H](OC)[C@H](OC)[C@@H](C)/C=C(\C)[C@H](OC(N)=O)[C@@H](OC)/C=C\C=C(/C)C(=O)NC(=CC1=O)C2=O [Compound I-g, 11-O-methyl-17-allylamino-17-demethoxygeldanamycin] | 280 | – | 760 | 360 | 1300 | 2500 | 3000 | > 5000 | 3500 | 4000 | 5.55
CO[C@H]1[C@@H](OC)C[C@H](C)CC2=C(NCCN(C)C)C(=O)C=C(NC(=O)/C(C)=C/C=C\[C@H](OC)[C@@H](OC(N)=O)/C(C)=C/[C@@H]1C)C2=O [Compound I-b, 11-O-methyl-17-(2-dimethylaminoethyl)amino-17-demethoxy-geldanamycin] | 12 | – | 50 | 23 | 43 | 58 | 62 | 960 | 390 | 65 | 6.10
CO[C@H]1[C@@H](OC)C[C@H](C)CC2=C(N)C(=O)C=C(NC(=O)/C(C)=C/C=C\[C@H](OC)[C@@H](OC(N)=O)/C(C)=C/[C@@H]1C)C2=O [Compound I-f] | 84 | – | 350 | 37 | 200 | 250 | 930 | 2500 | 850 | 530 | 6.49
CO[C@H]1[C@@H](OC)C[C@H](C)CC2=C(NCCc3c[nH]cn3)C(=O)C=C(NC(=O)/C(C)=C/C=C\[C@H](OC)[C@@H](OC(N)=O)/C(C)=C/[C@@H]1C)C2=O [Compound I-h, 11-O-methyl-17-(2-(4-imidazolyl)ethyl)amino-17-demethoxy-geldanamycin] | 60 | – | 160 | 420 | 320 | 510 | 2500 | > 5000 | 3000 | 2500 | 5.70
COC1=C2C[C@@H](C)C[C@H](OC)[C@H](OC)[C@@H](C)/C=C(\C)[C@H](OC(N)=O)[C@@H](OC)/C=C\C=C(/C)C(=O)NC(=CC1=O)C2=O [Compound I-e, 11-O-methyl-geldanamycin] | 9.1 | – | – | – | – | – | – | – | – | – | 6.31
CO[C@H]1[C@@H](OC)C[C@H](C)CC2=C(NCCN3CCCC3)C(=O)C=C(NC(=O)/C(C)=C/C=C\[C@H](OC)[C@@H](OC(N)=O)/C(C)=C/[C@@H]1C)C2=O [Compound I-j, 11-O-methyl-17-(2-(1-pyrrolidinyl)ethyl)amino-17-demethoxygeldanamycin] | 160 | – | 76 | 62 | 69 | 160 | 98 | 2500 | 520 | 170 | 6.02
